From patent publication US20080207900A1, “TWO CYCLIC OXOMORPHORIN DERIVATIVES” (priority 2007, published 2008)

Test system: Aβ42 production
Test: Quantitation of Aβ peptide in neuronal cell culture derived from a rat fetal brain (Aβ ELISA)
Assay type: cell-based
Conditions: rat primary neuronal cell culture (cerebral cortex, 18-day embryos); medium recovered 3 days after adding the compound; Aβx-42 ELISA; test concentration not given
Excerpt: Quantitation of Aβ Peptide in Neuronal Cell Culture Derived from a Rat Fetal Brain.
The cerebral cortex was isolated from 18-day embryos of Wister rats (Charles River Japan, Yokohama, Japan) and cultured. More specifically, under ether anesthesia, embryos were aseptically resected from pregnant rats. The brains were resected from the embryos and placed in an ice cold L-15 medium (Invitrogen Corp. Cat. #11415-064, Carlsbad, Calif., USA or SIGMA L15181 and the like). From the resected brains, the cerebral cortex was collected under a stereoscopic microscope. The collected pieces of the cerebral cortex were treated in an enzyme solution containing 0.25% trypsin (Invitrogen Corp. Cat. #15050-065, Carlsbad, Calif. USA) and 0.01% DNase (Sigma D5025, St. Louis, Mo., USA) at 37° C. for 30 minutes to disperse cells. Then, the enzyme reaction was stopped by adding inactivated horse serum. The resultant enzyme treatment solution was centrifuged at 1500 rpm for 5 minutes to remove the supernatant. A medium (5-10 ml) was added to the obtained cell aggregates. The medium used was Neurobasal medium (Invitrogen Corp. Cat. #21103-049, Carlsbad, Calif., USA) added with 2% B27 supplement (Invitrogen Corp. Cat #17504-044, Carlsbad, Calif. USA), 25 μM 2-mercaptoethanol (2-ME, WAKO Cat. #139-06861, Osaka, Japan), 0.5 mM L-glutamine (Invitrogen Corp. Cat. #25030-081, Carlsbad, Calif., USA) and Antibiotics-Antimycotics (Invitrogen Corp. Cat. #15240-062, Carlsbad, Calif., USA) (Neurobasal/B27/2-ME). However, a media without 2-ME (Neurobasal/B27) was used when an assay was carried out. The cell aggregates mixed with the medium were pipetted gently to re-disperse the cells. The resultant cell dispersion was filtered through a 40 μm nylon mesh (cell strainer, Cat. #. 35-2340, Becton Dickinson Labware, Franklin Lakes, N.J., USA) to obtain a neuronal cell suspension by removing cell aggregates. The resultant neuronal cell suspension was diluted with the medium and seeded into poly-L or D-lysine coated 96 well polystyrene culture vessels (Falcon Cat. #. 35-3075, Becton Dickinson Labware, Franklin Lakes, N.J., USA, coated with poly-L-lysine by a following method or BIOCOAT™πcell environments Poly-D-lysine cell ware 96-well plate, Cat. #. 35-6461, Becton Dickinson Labware, Franklin Lakes, N.J., USA) at 100 μL/well so that the initial cell density was 5×10^5 cells/cm^2. The poly-L-lysine coating was carried out as follows. Using 0.15 M Borate buffer (SIGMA P2636, St. Louis, Mo., USA) solution was aseptically prepared. The resultant solution was added to 96 well polystyrene culture vessels at […] and incubated at room temperature for 1 hour or longer or at 4° C. overnight or longer. Then the coated 96 well polystyrene culture vessels were washed with sterilized water 4 times or more, dried or rinsed with sterilized PBS or the medium and used for seeding the cells. After culturing the seeded cells were incubated at 37° C. in an incubator under a 5% CO2-95% air for 1 day, the whole medium was replaced with fresh Neurobasal/B27/2-ME medium, and the incubation was continued for 3 days.
At day 4 of culturing, drugs were added as follows. The whole medium was withdrawn and Neurobasal medium containing 2% B-27 but no 2-ME (Neurobasal/B27) was added to the well at 180 μL/well. A dimethylsulfoxide (hereinafter abbreviated as DMSO) solution of a test compound was diluted with Neurobasal/B27 to a 10 times concentration of the final concentration. The resultant diluted solution was added to the well at 20 μL/well and mixed well. The final DMSO concentration was to be 1% or less. Only DMSO was added to the control group.
After culturing 3 days after adding the compound, the whole medium was recovered. The medium thus obtained was used as ELISA samples. For Aβx-42 measurement, no dilution was made but for Aβx-40 measurement, samples were diluted 5 folds with the diluent attached to the ELISA kit to be subjected to the ELISA tests. […]

COc1cc(/C=C2\OC(C)(C)[C@H]3CC[C@@H](c4ccc(Cl)cc4)N3C2=O)ccc1-n1cnc(C)c1 [Example 8, (Z)-(6S,8aR)-6-(4-chlorophenyl)-3-[3-methoxy-4-(4-methylimidazol-1-yl)benzylidene]-1,1-dimethyltetrahydropyrrolo[2,1-c][1,4]oxazin-4-one]
Aβ42 production reducing activity: 74 % of CTRL

COc1cc(/C=C2\O[C@@H](C)[C@H]3COC[C@@H](c4cc(F)c(F)c(F)c4)N3C2=O)ccc1-n1cnc(C)c1 [Example 2, (Z)-(1S,6R,9aR)-3-[3-methoxy-4-(4-methylimidazol-1-yl)benzylidene]-1-methyl-6-(3,4,5-trifluorophenyl)tetrahydro-[1,4]oxazino[3,4-c][1,4]oxazin-4-one]
Aβ42 production reducing activity: 52 % of CTRL

COc1cc(/C=C2\OC(C)(C)[C@H]3CC[C@@H](c4cc(F)c(F)c(F)c4)N3C2=O)ccc1-n1cnc(C)c1 [Example 11, (Z)-(6S,8aR)-3-[3-methoxy-4-(4-methylimidazol-1-yl)benzylidene]-1,1-dimethyl-6-(3,4,5-trifluorophenyl)tetrahydropyrrolo[2,1-c][1,4]oxazine-4 one]
Aβ42 production reducing activity: 67 % of CTRL

COc1cc(/C=C2\OC(C)(C)[C@H]3COC[C@@H](c4cc(F)c(F)c(F)c4)N3C2=O)ccc1-n1cnc(C)c1 [Example 19]
Aβ42 production reducing activity: 42 % of CTRL

COc1cc(/C=C2\O[C@@H](C)[C@H]3CC[C@@H](c4cc(F)c(F)c(F)c4)N3C2=O)ccc1-n1cnc(C)c1 [Example 12, (Z)-(1S,6S,8aR)-3-[3-Methoxy-4-(4-methylimidazol-1-yl)benzylidene]-1-methyl-6-(3,4,5-trifluorophenyl)tetrahydropyrrolo[2,1-c][1,4]oxazin-4-one]
Aβ42 production reducing activity: 91 % of CTRL

COc1cc(/C=C2\O[C@@H](C)[C@H]3CC[C@@H](c4ccc(Cl)cc4)N3C2=O)ccc1-n1cnc(C)c1 [Example 9, (Z)-(1S,6S,8aR)-6-(4-chlorophenyl)-3-[3-methoxy-4-(4-methylimidazol-1-yl)benzylidene]-1-methyltetrahydropyrrolo[2,1-c][1,4]oxazin-4-one]
Aβ42 production reducing activity: 95 % of CTRL

COc1cc(/C=C2\O[C@@H](C)[C@H]3CCC[C@@H](c4cc(F)c(F)c(F)c4)N3C2=O)ccc1-n1cnc(C)c1 [Example 17, (Z)-(1S,6S,9aR)-3-[3-methoxy-4-(4-methylimidazol-1-yl)benzylidene]-1-methyl-6-(3,4,5-trifluorophenyl)hexahydropyrido[2,1-c][1,4]oxazin-4-one]
Aβ42 production reducing activity: 53 % of CTRL
